In ChEMBL document CHEMBL1201862, “PubChem BioAssay data set” (2004):
Calls of active or inactive are those of the source. No stated cut-off is given here; in the data, active = IC50 of 10 µM or less and inactive = more.

Columns and labels:
[1] = target: Melanin-concentrating hormone receptor 1 (Homo sapiens, UniProt Q99705); assay: Late-stage fluorescence-based counterscreen for antagonists of the G-protein coupled receptor 7 (GPR7): cell-based dose response assay to identify antagonists of the melanin-concentrating hormone receptor 1 (MCHR1) Set 6.; type: functional
[2] = target: T1, Neuropeptides B/W receptor type 1 (Homo sapiens, UniProt P48145); assay: GPR7 antagonist potency, late-stage follow-up, cell-based, fluorescence, dose response, set 6 (AID 588583); type: functional
T1 sequence (P48145 whole entry): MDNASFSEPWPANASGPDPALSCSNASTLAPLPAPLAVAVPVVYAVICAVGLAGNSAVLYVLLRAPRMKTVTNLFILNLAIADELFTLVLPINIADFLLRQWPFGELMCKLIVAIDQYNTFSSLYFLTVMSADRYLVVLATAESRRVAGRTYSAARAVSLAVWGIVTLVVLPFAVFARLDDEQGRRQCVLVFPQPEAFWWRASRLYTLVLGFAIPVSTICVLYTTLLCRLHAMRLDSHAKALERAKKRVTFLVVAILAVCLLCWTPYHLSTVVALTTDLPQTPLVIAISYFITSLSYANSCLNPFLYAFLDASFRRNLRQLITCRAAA

Melanin-concentrating hormone receptor 1, sequence (Q99705 whole entry): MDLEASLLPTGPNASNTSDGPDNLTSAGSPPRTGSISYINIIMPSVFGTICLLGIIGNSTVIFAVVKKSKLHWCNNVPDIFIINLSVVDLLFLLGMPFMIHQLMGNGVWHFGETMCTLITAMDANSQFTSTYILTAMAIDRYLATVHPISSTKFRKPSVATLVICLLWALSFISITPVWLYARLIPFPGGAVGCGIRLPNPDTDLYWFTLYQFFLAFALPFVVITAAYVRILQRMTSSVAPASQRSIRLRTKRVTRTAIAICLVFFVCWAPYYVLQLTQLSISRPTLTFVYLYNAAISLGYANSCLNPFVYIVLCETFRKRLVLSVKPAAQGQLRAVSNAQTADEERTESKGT

IC50 [1]: > 20 µM (inactive)
IC50 [2]: > 20 µM (inactive)
Structure (SMILES): N#CC(c1ccccc1)c1c(S)cnn(Cc2cccc3ccccc23)c1=O (configuration not stated)
